The numbers were not newly measured in patent publication US7833986B2, “Anti-inflammatory peptides” (Salpep Biotechnology Inc., priority 2002, dated 2010), which cites them from elsewhere.

In the series the test system is lipopolysaccharide-induced hypotension. Conditions: Mathison et al. (1997).

Turning to submandibular gland peptide-T [SGP-T], the “doses that inhibit lipopolysaccharide-induced hypotension” value is ≥ 1 µg/kg.
